Reference: US20190203253A1, “METHODS OF IDENTIFYING AND TREATING CANCER PATIENTS WITH AN EPHB6 DEFICIENCY” (University of Saskatchewan, priority 2016, published 2019)

Tests used:
[1] = molecular target: SRC (Homo sapiens, UniProt P12931); experiment: SRC inhibition in cells (anti-SRC immunoprecipitation, anti-phospho-SRC Western blot); type: cell-based; settings: MDA-B6 cells, 20 μM, 40 minutes, 10% FBS (FIG. 9B)
[2] = system: BT-20 cells (EPHB6-targeting shRNA vs non-silencing shRNA); experiment: Drug sensitivity assay (resazurin), SRC inhibitors, BT-20 cells with silenced EPHB6; type: cell-based, human; settings: BT-20 with EPHB6-targeting shRNA vs non-silencing shRNA, 96 h (FIGS. 6A-6E)
Protocol: FIG. 6. SL relation between EPHB6 and SRC in BT-20 TNBC cells. A. Triple negative breast cancer cells, BT-20, were transduced with EPHB6-targeting shRNA (BT20-66-shRNA), or non-silencing shRNA (BT2O-NS). EPHB6 expression was analyzed by Western blotting with anti-EPHB6. Western blotting with anti-tubulin was used as a loading control. B. BT20-66-shRNA and BT2O-NS cells were cultured in 96-well plates with indicated concentrations of SU6656 or matching volumes of DMSO for 96 h. Cells were stained with resazurin and fluorescence was measured using a SpectraMax M5 plate reader to determine cell suppression. Five wells were analyzed per condition. […] C. […] Cells were stained with resazurin and fluorescence was measured using a SpectraMax M5 plate reader to determine cell suppression. Five wells were analyzed per condition. […] PI-stained cells were counted in at least 10 randomly captured frames. […] Stained cells were analyzed by flow cytometry and the FlowJo software. […]
MDA-MB-231 and BT-20 cell monolayers were incubated in 96-well plates for 72 h and 96 h, respectively, with indicated concentrations of KX2-391 or SU6656, or matching volumes of DMSO as a solvent control. Treated cells were stained using resazurin by following the manufacturer's instructions and fluorescence was measured using a SpectraMax M5 microplate reader.

[3] = system: MDA-pc3 and MDA-B6 cells (MDA-MB-231); experiment: Drug sensitivity assay (resazurin), SRC inhibitors, MDA-MB-231-derived cells; type: cell-based, human; settings: MDA-pc3 vs MDA-B6, increasing concentrations, 72 h, resazurin (FIG. 4A, 4B)
Protocol: FIG. 4. […] C. […] All experiments were performed at least three times.

[4] = system: co-cultured MDA-pc3 and MDA-B6 cells; experiment: Co-cultured colour-coded cells with MET inhibitor (flow cytometry); type: cell-based, human; settings: 0.3 μM, 24, 32 and 48 hours, 1:1 co-culture (FIG. 11)
Protocol: FIG. 11. MET inhibition preferentially suppresses EPHB6-deficient cells. Hygro-selected combinations of MDA-B6-GFP and MDA-pc3-RFP (A and B) or MDA-B6-RFP and MDA-pc3-GFP (C and D) cells were seeded in 1:1 ratio and treated with 0.3 μM concentration of Met receptor inhibitor, ARQ197, or with a matching volume of DMSO, as a solvent control for 24, 32, and 48 hours. Treated cells were analyzed by flow cytometry. Bar graphs are based on the analyses of triplicates and represent a suppression of ARQ197-treated cell populations as a percentage relative to matching DMSO controls. (*) Statistical analyses: Student's t test, P<0.05 for indicated points. All analyses represent one of at least three independent experiments. The skilled person in the art will understand that the drawings, described herein, are for illustration purposes only. The drawings are not intended to limit the scope of the applicants' teachings in any way.
(§1) As mentioned above, a number of potential candidates that predominantly function in signal transduction (FIG. 2G), including DDR2, SRC, ROCK2 and MET (Table 1), were identified. Further testing with a MET inhibitor, ARQ197, was conducted to evaluate its SL properties. MDA-B6 and MDA-pc3 cells, as well as BT20-NS and BT20-shB6 cells, obtained using a method similar as described above in Example 1, were treated with increasing concentrations of ARQ197.

[5] = system: MDA-B6 and MDA-pc3 cells; experiment: Cell survival (resazurin) with MET inhibitor, MDA-MB-231-derived cells; type: cell-based, human; settings: increasing concentrations, 24 hours, vs MDA-B6 (FIG. 10A)
Protocol: (§2) FIG. 10. Analysis of EPHB6-MET SL interaction. A and B, MDA-B6 and MDA-pc3 (A) or BT2O-NS and BT20-shB6 (B) cells were treated for 24 hours with the indicated concentrations of MET inhibitor, ARQ197, or with matching concentrations of DMSO, as a control. Treated cells were stained with Resazurin for 2 h at 37° C. and cell survival was measured using a microplate reader. Data represent the analysis of triplicates and are shown as a percentage relative to matching DMSO controls. (*) Statistical analyses: Student's t test, P<0.05 for indicated points. All analyses represent one of at least three independent experiments.
as §1

[6] = system: BT20-NS and BT20-shB6 cells; experiment: Cell survival (resazurin) with MET inhibitor, BT-20-derived cells; type: cell-based, human; settings: increasing concentrations, 24 hours, vs BT20-NS (FIG. 10B)
Protocol: as §2, §1

Sequence of SRC (P12931 whole entry): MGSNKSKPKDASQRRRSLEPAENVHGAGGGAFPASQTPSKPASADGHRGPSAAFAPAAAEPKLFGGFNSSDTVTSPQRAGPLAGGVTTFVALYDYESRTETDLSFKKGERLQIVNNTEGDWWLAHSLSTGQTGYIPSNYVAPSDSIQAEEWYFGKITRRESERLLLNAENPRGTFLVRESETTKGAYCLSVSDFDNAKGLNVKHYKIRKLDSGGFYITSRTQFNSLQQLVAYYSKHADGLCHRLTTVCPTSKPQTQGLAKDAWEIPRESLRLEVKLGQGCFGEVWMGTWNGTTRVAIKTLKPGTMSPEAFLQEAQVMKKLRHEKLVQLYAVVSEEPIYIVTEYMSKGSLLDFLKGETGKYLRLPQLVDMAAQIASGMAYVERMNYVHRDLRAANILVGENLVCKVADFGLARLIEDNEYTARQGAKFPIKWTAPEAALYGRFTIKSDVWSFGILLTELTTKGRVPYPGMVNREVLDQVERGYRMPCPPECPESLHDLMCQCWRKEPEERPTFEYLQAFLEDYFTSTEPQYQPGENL

Row | SRC inhibition (phospho-SRC) [1] | Compound | cell suppression after silencing of EPHB6 expression [2] | cell suppression relative to DMSO control, EPHB6-deficient vs EPHB6-expressing cells [3] | suppression of cell populations in co-culture [4] | cell survival of EPHB6-deficient MDA-pc3 cells [5] | cell survival of BT20-shB6 cells [6]
1 | efficiently inhibited | CN(C)S(=O)(=O)c1ccc2c(c1)/C(=C/c1cc3c([nH]1)CCCC3)C(=O)N2 [SU6656] | strongly increased their suppression | preferentially suppressed EPHB6-deficient MDA-pc3 cells | – | – | –
2 | – | O=C1NC(=O)[C@@H](c2cn3c4c(cccc24)CCC3)[C@@H]1c1c[nH]c2ccccc12 [ARQ197] | – | – | preferentially suppressed EPPBH6-deficient MDA-B6 cells | decreased cell survival compared to MDA-B6 cells | decreased cell survival compared to BT-20 cells transduced with non-silencing shRNA
